Test system: Clostridium acetobutylicum strain ATCC 824
Assay: antibiotic sensitivity test (MIC, OD600 in 96-well plate, anaerobic)
Assay type: cell-based
Conditions: for MIC (final concentration of chloramphenicol): after 24 h of growth
Description: Bacterial culture conditions and strains have been previously published. All strains and cultures were maintained or grown in an atmosphere of 5.0% H2, 5.0% CO2, and 90.0% N2. Clostridium acetobutylicum strain ATCC 824 was obtained from ATCC and cultured using company protocol at 37° C. into Clostridial growth medium or CGM containing 0.75 g KH2PO4, 0.75 g K2HPO4, 1.0 g NaCl, 0.017 g MnSO4.5H2O, 0.70 g MgSO4.7H2O, 0.01 g FeSO4.7H2O, 2.0 g 1-asparagine, 5.0 g yeast extract, 2.0 g (NH4)2SO4, and 0.5% final concentration of desired carbohydrate—D-glucose, D-galacturonic acid, D-gluconic acid—at pH 6.5. Active cultures from initial growth stock were added to potato glucose medium to be maintained and stored as a spore solution. Potato glucose medium or PGM contains per liter of H2O—150 g grated fresh potato, 10 g D-glucose, 0.5 g (NH4)SO4, and 3 g CaCO3. The medium was boiled for 1 hour and strained through gauze before sterilization and use for culture. Spore solution was activated for culturing through a heat shock at 80° C. for 9 minutes. Shocked spore solution was added to CGM containing the feed stock of choice and grown to late log of 0.8 at optical density of 600 nm (OD600) at 37° C. Theses cultures were then used to perform antibiotic sensitivity experiments.
The protocol for antibiotic sensitivity test was performed as follows in anaerobic conditions: 200 μL of CGM medium containing either 0.5% D-galacturonate or D-glucose was aliquoted into a sterile Costar® 96-well polystyrene flat bottom plate in triplicate per test condition. Chloroamphenicol was dissolved in ethanol at different concentrations. Each chloroamphenicol concentration was added to each well in triplicate and considered a test condition. Test conditions included addition of 1 μL of ethanol, 1 of sterile water, 1 μL 0.1 mg mL^−1, 1 μL 0.25 mg mL^−1, 1 μL 0.5 mg mL^−1, 1 μL 1 mg mL^−1, 1 μL 2.5 mg mL^−1, 1 μL 5 mg mL^−1, 1 μL 10 mg mL^−1, 1 μL 20 mg mL^−1, and 1 μL 10 mg mL^−1. […] The optical density of the cultures in the wells were measured at 600 nm via a commercially available plate reader. […]

MIC (final concentration of chloramphenicol) (C. acetobutylicum grown in CGM with 0.5% D-galacturonate (galacturonic acid) as feedstock): 2.4 µg/mL
MIC (final concentration of chloramphenicol) (C. acetobutylicum grown in CGM with 0.5% D-glucose as feedstock): 23.7 µg/mL
Compound: O=C(N[C@H](CO)[C@H](O)c1ccc([N+](=O)[O-])cc1)C(Cl)Cl [chloramphenicol]
increase of antibiotic susceptibility with oxidized feed stock compared to glucose as feed stock (C. acetobutylicum, in vitro, galacturonate vs glucose): 10 fold

From US11684597B2, “Administration of tailored feedstock to increase nitro-containing amphenicol antibiotic susceptibility” (U.S. Army Research Laboratory, priority 2019, dated 2023)
